Results reported in PubChem BioAssay AID1919014 (Molecular Pharmacology Branch, DTP, NCI, 2023).

System: NCI-H1341 complex spheroids, percent test/control
Assay: Anticancer human tumor NCI-H1341 cell line growth inhibition [AhR];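 further: spheroids exposed to agents for seven days before readout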
Details: for IC50: curve of first compound; for viability, T/C: stronger effect = lower value
Method in brief: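 Agents were dosed in half-log steps down from roughly clinical Cmax, or from 10 microM where Cmax was unknown, alone and with AhR antagonists. Read-out: percent test/control growth of tumor spheroids containing HUVEC and MSC stromal cells.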

Structure (SMILES): CC(C)c1c(-c2ccccc2)nc2c(C#N)c[nH]n2c1=O + Cc1cncc(-c2nc(NCCc3c[nH]c4ccccc34)c3ncn(C(C)C)c3n2)c1
- IC50 (second compound 0.1 µM): > 10 µM
- IC50 (second compound 0.316 µM): > 10 µM
- IC50 (second compound 1 µM): > 10 µM
- IC50 (second compound 3.16 µM): > 10 µM
- IC50 (second compound 10 µM): < 0.0316 µM
- viability, T/C (second compound 0.1 µM, first compound 0.0316 µM): 90.7%
- viability, T/C (second compound 0.1 µM, first compound 0.1 µM): 83.7%
- viability, T/C (second compound 0.1 µM, first compound 0.316 µM): 86.6%
- viability, T/C (second compound 0.1 µM, first compound 1 µM): 81.3%
- viability, T/C (second compound 0.1 µM, first compound 3.16 µM): 69.6%
- viability, T/C (second compound 0.1 µM, first compound 10 µM): 58%
- viability, T/C (second compound 0.316 µM, first compound 0.0316 µM): 75.5%
- viability, T/C (second compound 0.316 µM, first compound 0.1 µM): 87.2%
- viability, T/C (second compound 0.316 µM, first compound 0.316 µM): 95.5%
- viability, T/C (second compound 0.316 µM, first compound 1 µM): 75.1%
- viability, T/C (second compound 0.316 µM, first compound 3.16 µM): 75.8%
- viability, T/C (second compound 0.316 µM, first compound 10 µM): 72.5%
- viability, T/C (second compound 1 µM, first compound 0.0316 µM): 75.9%
- viability, T/C (second compound 1 µM, first compound 0.1 µM): 78.6%
- viability, T/C (second compound 1 µM, first compound 0.316 µM): 78.5%
- viability, T/C (second compound 1 µM, first compound 1 µM): 75.3%
- viability, T/C (second compound 1 µM, first compound 3.16 µM): 78.9%
- viability, T/C (second compound 1 µM, first compound 10 µM): 68%
- viability, T/C (second compound 3.16 µM, first compound 0.0316 µM): 79.9%
- viability, T/C (second compound 3.16 µM, first compound 0.1 µM): 73.6%
- viability, T/C (second compound 3.16 µM, first compound 0.316 µM): 74.6%
- viability, T/C (second compound 3.16 µM, first compound 1 µM): 67.6%
- viability, T/C (second compound 3.16 µM, first compound 3.16 µM): 63.5%
- viability, T/C (second compound 3.16 µM, first compound 10 µM): 67.4%
- viability, T/C (second compound 10 µM, first compound 0.0316 µM): 18%
- viability, T/C (second compound 10 µM, first compound 0.1 µM): 20.1%
- viability, T/C (second compound 10 µM, first compound 0.316 µM): 21%
- viability, T/C (second compound 10 µM, first compound 1 µM): 20.2%
- viability, T/C (second compound 10 µM, first compound 3.16 µM): 16.2%
- viability, T/C (second compound 10 µM, first compound 10 µM): 19.5%
